Patent US12568971B2, “Degradative method” (Catexel Technologies Limited, priority 2020, dated 2026)

Assays:
[1] = cited from earlier work
[2] = at 20° C.; cited from earlier work
[3] = Dynamic viscosity of alginate solution after treatment (alginate depolymerisation), Brookfield cone/plate viscometer; details: 60 min at 50° C.
Procedure: The bottle was placed in a warm water bath (50° C.) for 60 minutes before being removed and cooled in an ice bath. Finally, the dynamic viscosity was determined using a Brookfield viscosity meter as outlined below. Note 1: A 2 mM solution of [[…])2 (see description of stock 12 above) was mixed with equivalent volume of the 2 mM ascorbic acid stock solution (stock solution 7). Upon contact with the ascorbic acid, the catalyst turned from orange/red to red/purple. Note 2: 0.5 mL of both Me3-TACN ligand (stock solution 10) and MnSO4·H2O (stock solution 8) were mixed, stirred and used as a source of catalyst to be placed in the alginate solution. The dynamic viscosity of the samples was measured using a Brookfield HBDV-II cone/plate viscosity meter equipped with a spindle CPE-40. The viscometer was linked to a water bath to maintain the temperature at 25° C. The apparatus was controlled via computer (external mode) using the Rheocalc software. Initially, the viscometer was zeroed without spindle. Then, the spindle CPE-40 was installed and the gap between the bottom of the cone and the top of the cup was set according to the recommendations given by Brookfield. 0.5 mL of the treated alginate solution was placed in the cup of the viscometer using a disposable plastic syringe before the apparatus was closed and the test program launched. […] Results.

In the case of `O=C(O)[C@@H]1O[C@@H](O)[C@@H](O)[C@@H](O)[C@@H]1O` [α-L-guluronic acid], the pKa [1] is listed as 3.65.

For [Mn^IVMn^IV(μ-O)3(Me3-TACN)2][PF6]2, the water solubility [2] is listed as 10.8 mg/mL.

For `O=C(O)[C@H]1O[C@@H](O)[C@@H](O)[C@@H](O)[C@@H]1O` [β-D-mannuronic acid], the pKa [1] is given as 3.38.

In the case of `O=S(=O)([O-])[O-].[Mn+2]` [MnSO4, manganese sulfate], the “Dynamic Viscosity” value ([3]; Entry 1: 10 μM MnSO4, 10 μM Me3TACN ligand, 20 mM H2O2, 4.7 mM NaHCO3, pH 10) is reported as 85.4 mPa · s, the “Dynamic Viscosity” value ([3]; Entry 2: 10 μM MnSO4, 20 μM Me3TACN ligand, 20 mM H2O2, 4.7 mM NaHCO3, pH 10) is reported as 76.1 mPa · s and the “Dynamic Viscosity” value ([3]; Entry 3: 10 μM MnSO4, 40 μM Me3TACN ligand, 20 mM H2O2, 4.7 mM NaHCO3, pH 10) is reported as 63.4 mPa · s.

With `CC(=O)[O-].CN1CCN(C)CCN(CCN2CCN(C)CCN(C)CC2)CC1.[Cl-].[Cl-].[Mn+3].[Mn+4].[O-2].[O-2]` [[Mn2(μ-O)2(μ-CH3COO)(Me4-DTNE)]^2+, [Mn2(μ-O)2(μ-CH3COO)(Me4DTNE)]Cl2] the “Dynamic Viscosity” value ([3]; 2.5 μM, pH 7.5, 10 mM H2O2, no buffer) was 82.3 mPa · s, the “Dynamic Viscosity” value ([3]; 2.5 μM, pH 8.0, 10 mM H2O2, no buffer) was 82.9 mPa · s and the “Dynamic Viscosity” value ([3]; 2.5 μM, pH 8.5, 10 mM H2O2, no buffer) was 80.7 mPa · s. For the same compound, the “Dynamic Viscosity” value ([3]; 5.0 μM, pH 7.5, 10 mM H2O2, no buffer) was 49.4 mPa · s, the “Dynamic Viscosity” value ([3]; 5.0 μM, pH 8.0, 10 mM H2O2, no buffer) was 53.7 mPa · s and the “Dynamic Viscosity” value ([3]; 5.0 μM, pH 8.5, 10 mM H2O2, no buffer) was 51.5 mPa · s. For the same compound, the “Dynamic Viscosity” value ([3]; 5.0 μM, pH 9.0, 10 mM H2O2, no buffer) was 62.9 mPa · s.
